# PubChem BioAssay (NCI)
#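 Compound exposure: 48 hours, 5 concentrations, 96-well plates. Definition used: TGI = concentration required for complete inhibition of growth.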
# How the values were obtained:
# Test in all cases: NCI-60 cell line screen, 48 h
# [1] = tested on: RPMI-8226 leukemia
# [2] = tested on: UACC-257 melanoma
# [3] = tested on: HCC-2998 colon
# [4] = tested on: HCT-15 colon
# [5] = tested on: SNB-75 CNS
# [6] = tested on: SF-268 CNS
# [7] = tested on: HOP-62 NSCLC
# [8] = tested on: M14 melanoma
# [9] = tested on: TK-10 renal
# [10] = tested on: EKVX NSCLC
# [11] = tested on: SW-620 colon
# [12] = tested on: UACC-62 melanoma
# [13] = tested on: MDA-MB-435
# [14] = tested on: SK-OV-3 ovarian
# [15] = tested on: OVCAR-3 ovarian
# [16] = tested on: HCT-116 colon
# [17] = tested on: CAKI-1 renal
# [18] = tested on: IGROV1 ovarian
# [19] = tested on: PC-3 prostate
# [20] = tested on: COLO 205 colon
# [21] = tested on: MOLT-4 leukemia
# [22] = tested on: MCF7 breast
# [23] = tested on: SNB-19 CNS
# [24] = tested on: SK-MEL-28 melanoma
# [25] = tested on: HS 578T breast
# [26] = tested on: CCRF-CEM leukemia
# [27] = tested on: MALME-3M melanoma
# [28] = tested on: T-47D breast
# [29] = tested on: SK-MEL-2 melanoma
# [30] = tested on: MDA-N
# [31] = tested on: RXF 393 renal
# [32] = tested on: UO-31 renal
# [33] = tested on: NCI-H522 lung
# [34] = tested on: HOP-92 NSCLC
# [35] = tested on: A549 NSCLC
# [36] = tested on: OVCAR-4 ovarian
# [37] = tested on: SN12C renal
# [38] = tested on: MDA-MB-231 breast
# [39] = tested on: NCI-H226 lung
# [40] = tested on: BT-549 breast
# [41] = tested on: U251 CNS
# [42] = tested on: SK-MEL-5 melanoma
# [43] = tested on: HT29 colon
# [44] = tested on: OVCAR-8 ovarian
# [45] = tested on: SF-539 CNS
# [46] = tested on: ACHN renal
# [47] = tested on: LOX IMVI melanoma
# [48] = tested on: HL-60(TB) leukemia
# [49] = tested on: NCI/ADR-RES ovarian
# [50] = tested on: 786-0 renal
# [51] = tested on: NCI-H23 lung
# [52] = tested on: SF-295 CNS
# [53] = tested on: DU-145 prostate
# [54] = tested on: KM12 colon
# [55] = tested on: A498 renal
# [56] = tested on: OVCAR-5 ovarian
# [57] = tested on: K-562 leukemia
# [58] = tested on: NCI-H460 lung
structure (smiles),measurement,setting,value
COc1ccc(-c2oc3ccc(C)cc3c(=O)c2O)cc1,TGI,[1],> 100 µM
same,TGI,[2],> 100 µM
same,TGI,[3],> 100 µM
same,TGI,[4],> 100 µM
same,TGI,[5],> 100 µM
same,TGI,[6],> 100 µM
same,TGI,[7],> 100 µM
same,TGI,[8],> 100 µM
same,TGI,[9],> 100 µM
same,TGI,[10],> 100 µM
same,TGI,[11],> 100 µM
same,TGI,[12],> 100 µM
same,TGI,[13],> 100 µM
same,TGI,[14],> 100 µM
same,TGI,[15],> 100 µM
same,TGI,[16],> 100 µM
same,TGI,[17],> 100 µM
same,TGI,[18],> 100 µM
same,TGI,[19],> 100 µM
same,TGI,[20],> 100 µM
same,TGI,[21],> 100 µM
same,TGI,[22],> 100 µM
same,TGI,[23],> 100 µM
same,TGI,[24],> 100 µM
same,TGI,[25],> 100 µM
same,TGI,[26],> 100 µM
same,TGI,[27],> 100 µM
same,TGI,[28],> 100 µM
same,TGI,[29],> 100 µM
same,TGI,[30],> 100 µM
same,TGI,[31],> 100 µM
same,TGI,[32],> 100 µM
same,TGI,[33],> 100 µM
same,TGI,[34],> 100 µM
same,TGI,[35],> 100 µM
same,TGI,[36],> 100 µM
same,TGI,[37],> 100 µM
same,TGI,[38],> 100 µM
same,TGI,[39],> 100 µM
same,TGI,[40],> 100 µM
same,TGI,[41],> 100 µM
same,TGI,[42],> 100 µM
same,TGI,[43],> 100 µM
same,TGI,[44],79.3 µM
same,TGI,[45],> 100 µM
same,TGI,[46],> 100 µM
same,TGI,[47],> 100 µM
same,TGI,[48],> 100 µM
same,TGI,[49],> 100 µM
same,TGI,[50],> 100 µM
same,TGI,[51],> 100 µM
same,TGI,[52],> 100 µM
same,TGI,[53],> 100 µM
same,TGI,[54],> 100 µM
same,TGI,[55],> 100 µM
same,TGI,[56],> 100 µM
CSc1nc2ccccc2c(=O)n1/N=C1\C(=O)N(CN2CCOCC2)c2ccc(Cl)cc21,TGI,[2],51.2 µM
same,TGI,[4],> 100 µM
same,TGI,[5],> 100 µM
same,TGI,[6],> 100 µM
same,TGI,[7],> 100 µM
same,TGI,[8],> 100 µM
same,TGI,[9],71.4 µM
same,TGI,[10],64.8 µM
same,TGI,[11],> 100 µM
same,TGI,[12],61.3 µM
same,TGI,[13],> 100 µM
same,TGI,[14],> 100 µM
same,TGI,[15],> 100 µM
same,TGI,[16],> 100 µM
same,TGI,[17],> 100 µM
same,TGI,[18],> 100 µM
same,TGI,[19],> 100 µM
same,TGI,[20],36.6 µM
same,TGI,[21],42.8 µM
same,TGI,[22],> 100 µM
same,TGI,[57],> 100 µM
same,TGI,[23],> 100 µM
same,TGI,[24],> 100 µM
same,TGI,[25],> 100 µM
same,TGI,[26],> 100 µM
same,TGI,[27],> 100 µM
same,TGI,[28],> 100 µM
same,TGI,[29],51.6 µM
same,TGI,[30],> 100 µM
same,TGI,[31],44.8 µM
same,TGI,[32],> 100 µM
same,TGI,[33],89.8 µM
same,TGI,[58],43.4 µM
same,TGI,[34],> 100 µM
same,TGI,[35],> 100 µM
same,TGI,[36],> 100 µM
same,TGI,[37],> 100 µM
same,TGI,[38],> 100 µM
same,TGI,[39],> 100 µM
same,TGI,[40],93.8 µM
same,TGI,[41],> 100 µM
same,TGI,[42],> 100 µM
same,TGI,[43],> 100 µM
same,TGI,[44],> 100 µM
same,TGI,[45],75.6 µM
same,TGI,[46],> 100 µM
same,TGI,[47],33.3 µM
same,TGI,[48],64 µM
same,TGI,[49],> 100 µM
same,TGI,[50],> 100 µM
same,TGI,[51],> 100 µM
same,TGI,[52],> 100 µM
same,TGI,[53],63.6 µM
same,TGI,[54],> 100 µM
same,TGI,[55],> 100 µM
same,TGI,[56],> 100 µM
